# Legend:
# [1] = test system: epidermoid carcinoma A431 cells; assay: Binding on A431 cells; design: species or system human; conditions: high level of EGFR; 100 nM
# Procedure: (§1) Binding experiments were performed with 5′-[^32P]-labeled RNA. For labeling 2′-F-Py RNAs were 5′-end dephosphorylated using bacterial alcaline phosphatase (Invitrogen, Carlsbad, Calif.) before [^32P]-5′-end-labeled using T4 kinase (Invitrogen) and γ-[^32P]-ATP (6×10^3 Ci/mmol, GE Healthcare Bio-Sciences, Uppsala, Sweden) according to the supplier's instructions.
# (§2) For binding experiments on cells, 3.5×10^4 cells were plated in 24-well plates in triplicate and were incubated with CL4 42-81 aptamer the scrambled sequence used as a negative control at 100 nM concentration in 200 μl of DMEM serum free for 20 min at RT in the presence of 100 μg/ml polyinosine as a nonspecific competitor (Sigma, St. Louis, Mo.). After five washings with 500 μl DMEM, bound sequences were recovered in 300 μl of SDS 1%, and the amount of radioactivity recovered was counted.
# A549 cells = assay: Cell viability assay, A549 cells; assay type: cell-based, human
# Procedure: Cell viability was assessed with CellTiter 96® AQueous One Solution Cell Proliferation Assay (Promega, Madison, Wis.) according to according to the supplier's instructions. […] The optical density (OD) was measured using a Multilabel Counter (Bio-Rad) at a wavelength of 490 nm and cell viability was calculated by the following formula: Cell viability (%)=(OD treated cells/OD control cells)×100%. FACS Analysis
# A549 tumors = assay: Tumor growth in A549 mouse xenograft; assay type: in vivo; conditions: day 16, with respect to CL4 scrambled control, 200 pmols intratumoral three times a week
# Procedure: The volume injections are small enough to preclude the compounds being forced inside the cells due to a nonspecific high-pressure injection. Tumors were measured every 3 days with calipers in three dimensions. The following formula was used to calculate tumor volume: VT=(W×L×H)×0.5236 (W, the shortest dimension; L, the longest dimension; H, the intermediate dimension). The growth curves are plotted as the means tumor volume±s.e.m. Statistical analysis of tumor size data was conducted using a one-way ANOVA. A P-value of 0.05 or less was considered to indicate a significant difference. […]
# Athymic CD-1 nude mice (nu/nu) were housed in a highly controlled microbiological environment, thus to guarantee specific pathogen free conditions. Mice were injected subcutaneously with 3×10^6 (in 100 μl) in vitro propagated A549. Sixteen non-necrotic tumors of about 0.5 cm in diameter were randomly divided into two groups of eight mice as follows: group 1, CL4 scrambled-treated; group 2, CL4 42-81-treated. Aptamers (200 pmols/injection) were injected intra-tumorally in 100-1 μl volumes three times a week for 16 days. Tumors were measured every 2 days.
# Calu1 = assay: Cell viability assay, Calu1 cells; assay type: cell-based, human; conditions: 200 nM-final concentration; not shown
# Procedure: Cell viability was assessed with CellTiter 96® AQueous One Solution Cell Proliferation Assay (Promega, Madison, Wis.) according to according to the supplier's instructions. Cells (4×10^3 cells/well) were plated in 96-well plates in triplicate. and were treated for 24 hs with heat denatured CL4 42-81 or the scrambled aptamer at 3 μM concentration. RNA concentrations were determined to ensure the continuous presence of a concentration of at least 200 nM, which takes into account the 6 hs-half life of the aptamer in 10% serum. The optical density (OD) was measured using a Multilabel Counter (Bio-Rad) at a wavelength of 490 nm and cell viability was calculated by the following formula: Cell viability (%)=(OD treated cells/OD control cells)×100%. FACS Analysis
# ERK = assay: Immunoblot of EGF-induced ERK phosphorylation; assay type: cell-based, human; conditions: data not shown
# Procedure: To assess the effects of aptamers on EGFR activity, A549 cells (1.5×10^5 cells per 3.5-cm plate) were serum-starved over night, pretreated with 200 nM CL4 42-81 aptamer or the scrambled aptamer used as a negative control for 3 h and then stimulated for 30 min with 50 ng/ml EGF (R&D Systems, Minneapolis, Minn.) either alone or in presence of each aptamer. The aptamers were subjected to a short denaturation-renaturation step (85° C. for 5 min, snap-cooled on ice for 2 min, and allowed to warm up to 37° C.) before each treatment. To prepare cell extracts, cells were washed twice in ice-cold PBS, and lysed in buffer A (50 mM Tris-HCl pH 8.0 buffer containing 150 mM NaCl, 1% Nonidet P-40, 2 mg/ml aprotinin, 1 mg/ml pepstatin, 2 mg/ml leupeptin, 1 mM Na3VO4). Protein concentration was determined by the Bradford assay using bovine serum albumin as the standard. The cell lysates were subjected to SDS-PAGE. […]
# NIH3T3 cells = assay: Binding on parental NIH3T3 cells; design: species or system mouse; conditions: [32P]-labeled aptamer at 100 nM; relative to scrambled aptamer
# Procedure: Human NSCLC A549, epidermoid carcinoma A431, glioma U87MG and T98G, breast SKBr3, MCF7 and T47D and mouse fibroblast NIH3T3 (all from American Type Culture Collection, Manassas, Va.) cells were grown in Dulbecco's modified Eagle medium (DMEM) supplemented with 10% fetal bovine serum (FBS) and 2 mM L-glutamine (Invitrogen, Carlsbad, Calif.). NIH3T3 cells stably transfected with human EGFR (NIH/EGFR) were grown in DMEM with 10% FBS and 2 mM L-glutamine supplemented with 50 μg/ml Gentamycin.
# as §1, §2
substance,measurement,setting,value
"CL4 42-81: 2′-fluoropyrimidine nuclease-resistant RNA aptamer of 39 nt: 5′ GCCUUAGUAACGUGCUUUGAUGUCGAUUCGACAGGAGGC 3′ (SEQ ID No. 1) (2'-fluoro at CU, RNA at AG, backbone not given here)",binding on A431 cells,[1],binds
same,sensitivity of A549 cell viability,"A549 cells; 200 nM-final concentration, 24 h",highly sensitive
same,cell viability,"A549 cells; A549, 24 hs, 200 nM final concentration, relative to untreated cells set to 100%",about 60%
same,effectiveness on A549 cell viability in combination with gefitinib,"A549 cells; CL4 42-81 100 and 200 nM with 1 μM gefitinib, 24 h",not improved
same,inhibition of tumor growth (tumor volume),A549 tumors,57%
same,sensitivity of Calu1 cell viability,Calu1,same effect
same,EGF-induced phosphorylation of ERK,ERK,decreases
same,binding on parental NIH3T3 cells,NIH3T3 cells,does not binding

# — patent publication US9125930B2, “EGFR aptamer inhibitor for use in therapy and diagnosis” (CONSIGLIO NAZIONALE DELLE RICERCHE, priority 2010, dated 2015)
